Measured values published in paper PMC8068036, “Synthesis of New Biscoumarin Derivatives, In Vitro Cholinesterase Inhibition, Molecular Modelling and Antiproliferative Effect in A549 Human Lung Carcinoma Cells” (International Journal of Molecular Sciences, 2021).
Where two headings read alike, the source gives them in different places.

Assays:
Assay type in all cases: cell-based, human
A549 cells [1] = test: Colony-forming assay; details: 65 μM, 24 h treatment, 7 days cultivation, vs untreated control
Experimental: For the colony-forming assay, floating and adherent cells were harvested together 24 h after treatment with the studied derivatives (35 and 65 µM). The cells were then counted using a Bürker chamber with eosin staining, and 500 viable cells per well were seeded in 6-well plates. After 7 days of cultivation under standard conditions, the cells in the plates were fixed and stained with 1% methylene blue dye in methanol. Visualized colonies were scanned and counted, and the results were evaluated as percentages of the untreated control. The results are presented as the average percentage of colonies from three independent experiments.

A549 cells [2] = test: MTT assay, A549; details: for IC50: Homo sapiens
Experimental: Human lung carcinoma cell line A549 and CCD-18Co colon fibroblasts were purchased from the American Type Culture Collection (ATCC, Rockville, MD, USA). The A549 cells were cultured in a complete RPMI-1640 medium (Sigma-Aldrich, St. Louis, MO, USA), and CCD-18Co cells were cultured in an MEM medium (PAN-Biotech GmbH, Aidenbach, Germany). The media were supplemented with 10% fetal bovine serum (FBS; Biosera, Nuaille, France) and antibiotics (1% Antibiotic-Antimycotic 100× and 50 × 10^−3 g l^−1 gentamicin; Biosera) at 37 °C, 95% humidity, and 5% CO2.
Prior to the selected treatments, cells were seeded on 12-well μ-Chamber slides (ibidi GmbH, Martinsried, Germany) and 6 and/or 96-well plates (TPP, Trasadingen, Switzerland) and left to settle for 24 h. The biscoumarin derivative solutions (at concentrations ranging from 10–100 µM) were then added to cells for 24 or 48 h, and analysis was subsequently performed.
MTT assays were performed in order to evaluate changes in the metabolic activity of cells that had occurred as a consequence of treatment with the biscoumarin derivatives. A549 cells (15 × 10^3 cells/cm^2) and CCD-18Co ([…]) were seeded in 96-well microplates. The cells were treated for 24 and 48 h with different concentrations (10, 25, 35, 50, 65, 75, and 100 µM) of the derivatives. After the treatment, the MTT (3-(4,5-dimethylthiazol-2-yl)-2,5-diphenyltertrazolium bromide) solution in PBS (5 mg mL^−1) was added to each well. […]. The absorbance of formazan (λ = 584 nm) was measured using a BMG FLUOstar Optima spectrometer (BMG Labtech GmbH, Offenburg, Germany). The results were evaluated as percentages of the absorbance of the untreated control. Results are presented as the average percentage of cells from three independent experiments. IC50 values for the derivatives were extrapolated from a sigmoidal fit (dose–response curve) to the metabolic activity data using OriginPro 8.5.0 SR1 (OriginLab Corp., Northampton, MA, USA).

A549 cells [3] = test: Quantification of cell number and viability (eosin staining); details: 35 and 65 μM, 24 h, eosin negative cells
Experimental: For the assessment of total cell numbers and viability within individual experimental groups, floating and adherent cells were harvested after treatment with the studied derivatives and evaluated using a Bürker chamber with eosin staining. A549 cells were plated at a density of 135 × 10^3 cell/well into a 6-well plate and treated with different concentrations of derivatives (35 and 65 µM) for 24 hrs. The total cell number was expressed as a percentage of the total cell number of the untreated control. Viability was expressed as a percentage of viable, eosin negative cells. The results are presented as the average percentage of cells from three independent experiments.

A549 cells [4] = test: Apoptosis by cleaved PARP immunolabelling; details: A549, 24 h
Experimental: The studied biscoumarin derivatives were added to cells seeded on 12-well μ-Chamber slides for 24 h. After cultivation with the derivatives, the samples (both the control without the derivatives and experimental groups) were washed with a 0.1 M PBS solution buffer to remove all non-cell-absorbed derivative residues and fixed with 4% paraformaldehyde for 20 min at RT. Alternatively, cells were incubated with Mitotracker Red (0.5 µM; Thermo Fisher Scientific, Waltham, MA, USA) for 30 min at 37 °C, washed with 0.1 M PBS, and fixed with 4% paraformaldehyde for 20 min at RT. For the quantification of proliferative activity and programmed cell death, samples were incubated overnight at 4 °C with the mouse anti-Ki67 antibody (NCL-L-Ki67-MM1, 1:100, Leica Biosystems, Wetzlar, Germany) and rabbit anti-cleaved PARP (cat. no. 94885, 1:100, Cell Signaling, Danvers, MA, USA) diluted in 0.1 M PBS containing 1% normal donkey serum (Jackson Immunoresearch, Cambridgeshire, Great Britain) and 0.3% Triton-X 100. […]
All samples were evaluated using a Leica TCS SP5X confocal system (Leica Microsystems, Mannheim, Germany). The biscoumarin derivatives were visualized in cells using a 405 nm laser, and the fluorescence was captured in the range of 420–480 nm with identical exposure parameters for all samples. […]

A549 cells [5] = test: Cell cycle analysis (flow cytometry, PI); details: 35 and 65 µM, 24 h
Experimental: For flow cytometric analysis of the cell cycle distribution, floating and adherent cells were harvested together 24 h after treatment with the derivatives (35 and 65 µM), washed in cold PBS, fixed in cold 70% ethanol, and stored overnight at −20 °C. Prior to analysis, the cells were washed twice in PBS, resuspended in a staining solution (0.1% Triton X-100, 0.137 g L^−1 ribonuclease A and 0.02 g L^−1 propidium iodide—PI), and incubated in dark conditions at RT for 30 min. The DNA content was analyzed using a BD FACSCalibur flow cytometer (Becton Dickinson, San Jose, CA, USA) with a 488 nm argon-ion excitation laser, and fluorescence was detected using a 585/42 nm band-pass filter (FL-2). ModFit 3.0 software (Verity Software House, Topsham, ME, USA) was used to generate DNA content frequency histograms and to quantify the percentage of cells in the individual cell cycle phases. The results are presented as the average ratio of cells in the individual phase to all cells from three independent experiments.

SMILES: COC(=O)Cc1cc(=O)oc2cc(OCCCCCCCCN3CCN(CCNC(=O)Cc4cc(=O)oc5cc(O)ccc45)CC3)ccc12 [12e, Methyl 2-[7-({2-[4-(2-{[2-(7-hydroxy-2-oxo-2H-4-chromenyl)acetyl]amino}etyl)piperazino]oktyl}oxy)-2-oxo-2H-4-chromenyl]acetate]
- Reduction in relative number of colonies (A549 cells [1]): 20%
- Metabolic activity of A549 cells (in words) (A549 cells [2]; 10 to 100 μM, 24 and 48 h): significant decrease
- IC50 (A549 cells [2]; A549, 24 h, read-out: IC50 A549 24 h): 49 µM
- IC50 (A549 cells [2]; A549, read-out: IC50 A549 48 h, 48 h): 35 µM
- Cell viability of A549 (in words) (A549 cells [3]): reduced cell viability at a concentration of 65 μM
- Apoptotic cells (cleaved PARP) (A549 cells [4]): ≤ 0.001%
- Cell cycle distribution, G0/G1 phase (in words) (A549 cells [5]): increase in the percentage of the cell population in the G0/G1 phase
